Reference: US8729082B2, “Substituted imidazoquinoxalines” (Bayer Intellectual Property GmbH, priority 2009, dated 2014)

Target: T1, human kinase Mps-1 (Homo sapiens, UniProt P33981)
T1 construct: N-terminally GST-tagged human full length recombinant Mps-1 kinase; purchased Invitrogen, Karslruhe, Germany PV4071
T1 sequence (P33981 1-857): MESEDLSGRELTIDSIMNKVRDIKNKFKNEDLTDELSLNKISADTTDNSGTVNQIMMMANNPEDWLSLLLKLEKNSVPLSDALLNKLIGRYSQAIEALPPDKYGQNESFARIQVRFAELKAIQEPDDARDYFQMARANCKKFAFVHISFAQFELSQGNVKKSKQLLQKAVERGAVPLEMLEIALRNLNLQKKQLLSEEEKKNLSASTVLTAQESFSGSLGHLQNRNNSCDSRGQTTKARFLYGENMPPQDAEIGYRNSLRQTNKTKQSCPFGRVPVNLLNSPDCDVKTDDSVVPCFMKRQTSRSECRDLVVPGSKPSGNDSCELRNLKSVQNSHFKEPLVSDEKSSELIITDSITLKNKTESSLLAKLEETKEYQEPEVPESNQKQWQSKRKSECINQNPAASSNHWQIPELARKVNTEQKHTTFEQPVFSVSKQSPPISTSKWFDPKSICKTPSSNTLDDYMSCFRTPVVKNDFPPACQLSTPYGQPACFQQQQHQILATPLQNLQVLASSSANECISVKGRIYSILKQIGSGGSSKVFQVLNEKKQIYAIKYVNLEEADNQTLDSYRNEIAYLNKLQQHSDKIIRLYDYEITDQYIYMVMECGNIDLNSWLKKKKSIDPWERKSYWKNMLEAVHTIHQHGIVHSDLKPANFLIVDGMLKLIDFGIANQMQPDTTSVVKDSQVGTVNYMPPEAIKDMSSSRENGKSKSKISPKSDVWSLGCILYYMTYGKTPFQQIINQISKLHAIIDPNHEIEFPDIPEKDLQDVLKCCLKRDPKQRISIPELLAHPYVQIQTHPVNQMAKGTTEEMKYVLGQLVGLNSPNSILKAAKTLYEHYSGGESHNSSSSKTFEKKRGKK
Test: Mps-1 kinase assay (HTRF)
Format: biochemical
Conditions: lowATP; mean; read-out: Mps1 lowATP mean IC50
Outline: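 HTRF readout: EDTA-stopped reactions incubated 1 h with europium anti-phospho(Ser/Thr) antibody and streptavidin-XLent, emission ratio 665/620 nm after 350 nm excitation. Kinase step: compound pre-bound 15 min to ~1 nM GST-Mps-1, then 60 min at 22 °C with ATP and biotin-peptide substrate; inhibition scaled between no-inhibitor (0%) and no-enzyme (100%) controls.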

IC50	SMILES
2280 nM	Cn1cc(CNc2nc3cc(F)c(F)cc3n3c(-c4ccc(C(=O)NC5CC5)c(Cl)c4)cnc23)cn1 [Example 2-142, 2-chloro-N-cyclopropyl-4-(7,8-difluoro-4-{[(1-methyl-1H-pyrazol-4-yl)methyl]amino}imidazo[1,2-a]quinoxalin-1-yl)benzamide]
1640 nM	Cn1cc(CNc2nc3ccc(F)cc3n3c(-c4ccc(C(=O)NC5CC5)c(Cl)c4)cnc23)cn1 [Example 2-86, 2-chloro-N-cyclopropyl-4-(8-fluoro-4-{[(1-methyl-1H-pyrazol-4-yl)methyl]amino}imidazo[1,2-a]quinoxalin-1-yl)benzamide]
339 nM	CC(C)CNc1nc2cc(C#N)ccc2n2c(-c3ccc(C(=O)NC4CC4)c(Cl)c3)cnc12 [Example 2-247, 2-chloro-4-{7-cyano-4-[(2-methylpropyl)amino]imidazo[1,2-a]quinoxalin-1-yl}-N-cyclopropylbenzamide]
229 nM	O=C(NC1CC1)c1ccc(-c2cnc3c(NCCCn4ccnc4)nc4cc(F)c(F)cc4n23)cc1 [Example 2-103, N-cyclopropyl-4-(7,8-difluoro-4-{[3-(1H-imidazol-1-yl)propyl]amino}imidazo[1,2-a]quinoxalin-1-yl)benzamide]
17300 nM	COc1cccc(-c2cnc3c(NCC(C)C)nc4ccccc4n23)c1F [Example 1-8, 1-(2-fluoro-3-methoxyphenyl)-N-(2-methylpropyl)imidazo[1,2-a]quinoxalin-4-amine]
9140 nM	CC(C)CNc1nc2ccccc2n2c(-c3ccccc3F)cnc12 [Example 1-26, 1-(2-fluorophenyl)-N-(2-methylpropyl)imidazo[1,2-a]quinoxalin-4-amine]
18600 nM	CC(C)CNc1nc2ccccc2n2c(-c3cccc(O)c3)cnc12 [Example 1-36, 3-{4-[(2-methylpropyl)amino]imidazo[1,2-a]quinoxalin-1-yl}phenol]
24.5 nM	CC(C)CNc1nc2cc(F)c(F)cc2n2c(-c3ccc(C(=O)NC4CC4)cc3)cnc12 [Example 2-106, N-cyclopropyl-4-{7,8-difluoro-4-[(2-methylpropyl)amino]imidazo[1,2-a]quinoxalin-1-yl}benzamide]
19400 nM	CCCCNc1nc2cc(F)c(F)cc2n2c(-c3ccc(NC(=O)NC)cc3)cnc12 [Example 2-117, 1-{4-[4-(butylamino)-7,8-difluoroimidazo[1,2-a]quinoxalin-1-yl]phenyl}-3-methylurea]
55.5 nM	CC(C)CCNc1nc2cc(F)c(F)cc2n2c(-c3ccc(C(=O)NC4CC4)cc3)cnc12 [Example 2-91, N-cyclopropyl-4-{7,8-difluoro-4-[(3-methylbutyl)amino]imidazo[1,2-a]quinoxalin-1-yl}benzamide]
28.5 nM	CCCNc1nc2ccc(F)cc2n2c(-c3ccc(C(=O)NC4CC4)cc3)cnc12 [Example 2-40, N-cyclopropyl-4-[8-fluoro-4-(propylamino)imidazo[1,2-a]quinoxalin-1-yl]benzamide]
7020 nM	CNC(=O)Nc1ccc(-c2cnc3c(NCCCn4ccnc4)nc4cc(F)c(F)cc4n23)cc1 [Example 2-119, 1-[4-(7,8-difluoro-4-{[3-(1H-imidazol-1-yl)propyl]amino}imidazo[1,2-a]quinoxalin-1-yl)phenyl]-3-methylurea]
287 nM	N#Cc1ccc(CNc2nc3ccccc3n3c(-c4ccc(C(=O)NC5CC5)cc4)cnc23)cc1 [Example 2-34, 4-{4-[(4-cyanobenzyl)amino]imidazo[1,2-a]quinoxalin-1-yl}-N-cyclopropylbenzamide]
15200 nM	CC(C)CNc1nc2ccccc2n2c(-c3ccc(C(=O)N(C)C)cc3)cnc12 [Example 1-9, N,N-dimethyl-4-{4-[(2-methylpropyl)amino]imidazo[1,2-a]quinoxalin-1-yl}benzamide]
233 nM	NC(=O)CCNc1nc2cc(F)c(F)cc2n2c(-c3ccc(C(=O)NC4CC4)cc3)cnc12 [Example 2-107, 4-{4-[(3-amino-3-oxopropyl)amino]-7,8-difluoroimidazo[1,2-a]quinoxalin-1-yl}-N-cyclopropylbenzamide]
48.1 nM	NS(=O)(=O)c1ccc(CCNc2nc3ccccc3n3c(-c4ccc(C(=O)NC5CC5)cc4)cnc23)cc1 [Example 2-21, N-cyclopropyl-4-(4-{[2-(4-sulfamoylphenyl)ethyl]amino}imidazo[1,2-a]quinoxalin-1-yl)benzamide]

IC50	SMILES
4890 nM	COCCNc1nc2cc(F)c(F)cc2n2c(-c3ccc(C(=O)NC4CC4)c(Cl)c3)cnc12 [Example 2-126, 2-chloro-N-cyclopropyl-4-{7,8-difluoro-4-[(2-methoxyethyl)amino]imidazo[1,2-a]quinoxalin-1-yl}benzamide]
3730 nM	CCCCNc1nc2cc(F)c(F)cc2n2c(-c3ccc(C(=O)NC4CC4)c(Cl)c3)cnc12 [Example 2-131, 4-[4-(butylamino)-7,8-difluoroimidazo[1,2-a]quinoxalin-1-yl]-2-chloro-N-cyclopropylbenzamide]
417 nM	CNC(=O)Nc1ccc(-c2cnc3c(NCCOC)nc4cc(C)c(C)cc4n23)cc1 [Example 2-162, 1-(4-{4-[(2-methoxyethyl)amino]-7,8-dimethylimidazo[1,2-a]quinoxalin-1-yl}phenyl)-3-methylurea]
9780 nM	CNC(=O)Nc1ccc(-c2cnc3c(NCCNC(C)=O)nc4cc(C#N)ccc4n23)cc1 [Example 2-228, N-{2-[(7-cyano-1-{4-[(methylcarbamoyl)amino]phenyl}imidazo[1,2-a]quinoxalin-4-yl)amino]ethyl}acetamide]
3810 nM	O=C(NC1CC1)c1ccc(-c2cnc3c(NCc4ccccc4F)nc4cc(F)c(F)cc4n23)cc1Cl [Example 2-127, 2-chloro-N-cyclopropyl-4-{7,8-difluoro-4-[(2-fluorobenzyl)amino]imidazo[1,2-a]quinoxalin-1-yl}benzamide]
477 nM	O=C(NC1CC1)c1ccc(-c2cnc3c(NCC(O)CO)nc4ccc(F)cc4n23)cc1 (stereo not shown) [Example 2-59, N-cyclopropyl-4-{4-[(2,3-dihydroxypropyl)amino]-8-fluoroimidazo[1,2-a]quinoxalin-1-yl}benzamide]
17300 nM	O=C(NC1CC1)c1ccc(-c2cnc3c(NCc4ccc(F)cc4)nc4cc(F)c(F)cc4n23)cc1Cl [Example 2-128, 2-chloro-N-cyclopropyl-4-{7,8-difluoro-4-[(4-fluorobenzyl)amino]imidazo[1,2-a]quinoxalin-1-yl}benzamide]
1090 nM	O=C(NC1CC1)c1ccc(-c2cnc3c(NCc4ccncc4)nc4ccc(F)cc4n23)cc1Cl [Example 2-82, 2-chloro-N-cyclopropyl-4-{8-fluoro-4-[(pyridin-4-ylmethyl)amino]imidazo[1,2-a]quinoxalin-1-yl}benzamide]
209 nM	CNC(=O)Nc1ccc(-c2cnc3c(NCC(C)C)nc4cc(C)c(C)cc4n23)cc1 [Example 2-173, 1-(4-{7,8-dimethyl-4-[(2-methylpropyl)amino]imidazo[1,2-a]quinoxalin-1-yl}phenyl)-3-methylurea]
4620 nM	CC(C)CNc1nc2ccccc2n2c(-c3ccccc3O)cnc12 [Example 1-35, 2-{4-[(2-methylpropyl)amino]imidazo[1,2-a]quinoxalin-1-yl}phenol]
3950 nM	CC(C)CNc1nc2ccccc2n2c(-c3ccc(C(=O)Nc4cc[nH]n4)cc3)cnc12 [Example 3-1, 4-{4-[(2-methylpropyl)amino]imidazo[1,2-a]quinoxalin-1-yl}-N-(1H-pyrazol-3-yl)benzamide]
1510 nM	CC(C)CNc1nc2ccccc2n2c(-c3ccc(C(=O)NCC(N)=O)cc3)cnc12 [Example 3-12, N-(2-amino-2-oxoethyl)-4-{4-[(2-methylpropyl)amino]imidazo[1,2-a]quinoxalin-1-yl}benzamide]
87.6 nM	CCNc1nc2ccc(F)cc2n2c(-c3ccc(C(=O)NC4CC4)cc3)cnc12 [Example 2-49, N-cyclopropyl-4-[4-(ethylamino)-8-fluoroimidazo[1,2-a]quinoxalin-1-yl]benzamide]
982 nM	CNC(=O)Nc1ccc(-c2cnc3c(NCCCN4CCOCC4)nc4cc(C)c(C)cc4n23)cc1 [Example 2-160, 1-[4-(7,8-dimethyl-4-{[3-(morpholin-4-yl)propyl]amino}imidazo[1,2-a]quinoxalin-1-yl)phenyl]-3-methylurea]
11.1 nM	CCCNc1nc2cc(C#N)ccc2n2c(-c3ccc(C(=O)NC4CC4)cc3)cnc12 [Example 2-203, 4-[7-cyano-4-(propylamino)imidazo[1,2-a]quinoxalin-1-yl]-N-cyclopropylbenzamide]
